From ChEMBL document CHEMBL3217521, “Analogues of the HIV-Tat peptide containing N-modified arginines as potent inhibitors of protein arginine N-methyltransferases” (Medchemcomm, 2012)
Activity calls are given as the source filed them. The rule behind the calls is not given here. Starred links: 1 amine or outer side, 2 acyl side, 3 side chain; linkers in the order of their positions; H or OH if unused. Non-standard residues stand in square brackets, D forms with d. Residues, ends and D or L forms follow the SMILES beside them. X2 = N/C(=N\CC(F)(F)F)NCCC[C@H](N[*:1])C(=O)[*:2]; X3 = N/C(=N\Cc1ccccc1)NCCC[C@H](N[*:1])C(=O)[*:2]; X4 = NC(NCCC[C@H](N[*:1])C(=O)[*:2])=[N+]1CCCC1; X5 = N/C(=N\C1CC1)NCCC[C@H](N[*:1])C(=O)[*:2]; X1 = N/C(=N\O)NCCC[C@H](N[*:1])C(=O)[*:2]

Key:
[1] = molecular target: T1, Histone-arginine methyltransferase CARM1 (Homo sapiens) (UniProt Q86X55); assay: Activity at PRMT4 (unknown origin) using [methyl-14C]AdoMet at 0.25 to 200 uM after 60 to 120 mins by tricine gel electrophoresis
T1 sequence (whole entry): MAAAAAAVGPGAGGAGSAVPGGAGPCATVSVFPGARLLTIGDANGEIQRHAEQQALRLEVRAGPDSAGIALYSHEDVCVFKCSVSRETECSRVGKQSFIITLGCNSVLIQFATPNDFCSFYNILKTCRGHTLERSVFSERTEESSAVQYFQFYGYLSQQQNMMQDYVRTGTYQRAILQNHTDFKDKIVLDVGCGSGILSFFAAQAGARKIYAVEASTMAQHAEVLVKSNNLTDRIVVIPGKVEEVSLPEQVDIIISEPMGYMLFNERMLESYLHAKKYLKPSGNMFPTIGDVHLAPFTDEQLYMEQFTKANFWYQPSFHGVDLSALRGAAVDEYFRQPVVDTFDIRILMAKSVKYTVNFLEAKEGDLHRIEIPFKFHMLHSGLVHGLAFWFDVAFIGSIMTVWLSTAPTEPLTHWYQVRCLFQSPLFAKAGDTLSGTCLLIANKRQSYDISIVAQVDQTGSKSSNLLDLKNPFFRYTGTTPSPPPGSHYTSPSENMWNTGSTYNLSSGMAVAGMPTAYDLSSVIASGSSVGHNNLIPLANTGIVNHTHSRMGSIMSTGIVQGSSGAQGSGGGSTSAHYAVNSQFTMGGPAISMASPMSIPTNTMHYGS

[2] = molecular target: T2, Protein arginine N-methyltransferase 6 (Homo sapiens, UniProt Q96LA8); assay: Inhibition of PRMT6 (unknown origin) using AdoMet by Michaelis-Menten equation analysis
Target sequence in this assay (Q96LA8 whole entry): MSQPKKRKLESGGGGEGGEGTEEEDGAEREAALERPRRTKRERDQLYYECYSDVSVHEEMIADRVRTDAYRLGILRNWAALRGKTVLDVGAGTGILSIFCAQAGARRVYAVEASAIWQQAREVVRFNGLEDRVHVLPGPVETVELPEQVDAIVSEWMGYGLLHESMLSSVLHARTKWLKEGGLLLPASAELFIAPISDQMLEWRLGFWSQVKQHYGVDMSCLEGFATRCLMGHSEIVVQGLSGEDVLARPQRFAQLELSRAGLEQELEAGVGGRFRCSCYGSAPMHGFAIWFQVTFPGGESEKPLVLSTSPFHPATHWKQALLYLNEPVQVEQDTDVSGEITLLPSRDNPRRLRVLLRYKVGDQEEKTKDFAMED

[3] = molecular target: T3, Protein arginine N-methyltransferase 1 (Homo sapiens, UniProt Q99873); assay: Inhibition of PRMT1 (unknown origin) using AdoMet by Michaelis-Menten equation analysis
Target sequence in this assay (Q99873 whole entry): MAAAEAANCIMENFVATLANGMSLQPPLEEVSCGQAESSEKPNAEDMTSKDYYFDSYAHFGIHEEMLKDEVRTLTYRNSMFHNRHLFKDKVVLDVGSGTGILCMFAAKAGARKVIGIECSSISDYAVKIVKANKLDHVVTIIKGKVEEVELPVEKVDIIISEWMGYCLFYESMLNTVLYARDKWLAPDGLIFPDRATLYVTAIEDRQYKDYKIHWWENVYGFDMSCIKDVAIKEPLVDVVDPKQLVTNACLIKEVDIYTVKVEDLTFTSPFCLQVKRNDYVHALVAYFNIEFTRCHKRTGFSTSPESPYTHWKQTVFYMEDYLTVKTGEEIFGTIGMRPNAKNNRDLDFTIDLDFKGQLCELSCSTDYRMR

[4] = molecular target: T2, Protein arginine N-methyltransferase 6; assay: Activity at PRMT6 (unknown origin) using [methyl-14C]AdoMet at 0.25 to 200 uM after 60 to 120 mins by tricine gel electrophoresis
Target sequence in this assay (Q96LA8 whole entry, looked up): as the sequence (Q96LA8 whole entry) above

[5] = molecular target: T3, Protein arginine N-methyltransferase 1; assay: Activity at PRMT1 (unknown origin) using [methyl-14C]AdoMet at 0.25 to 200 uM after 60 to 120 mins by tricine gel electrophoresis
Target sequence in this assay (Q99873 whole entry, looked up): as the sequence (Q99873 whole entry) above

[6] = molecular target: T3, Protein arginine N-methyltransferase 1; assay: Activity at PRMT1 (unknown origin) assessed as methylation of substituted arginines by LC-MS/MS analysis
Target sequence in this assay (Q99873 whole entry, looked up): as the sequence (Q99873 whole entry) above

[7] = molecular target: T2, Protein arginine N-methyltransferase 6; assay: Activity at PRMT6 (unknown origin) assessed as methylation of substituted arginines by LC-MS/MS analysis
Target sequence in this assay (Q96LA8 whole entry, looked up): as the sequence (Q96LA8 whole entry) above

Homo sapiens [8] = species on record: Homo sapiens; assay: Ratio of PRMT4 (unknown origin) to PRMT6 (unknown origin)
Homo sapiens [9] = species on record: Homo sapiens; assay: Ratio of PRMT4 (unknown origin) to PRMT1 (unknown origin)
[10] = molecular target: T2, Protein arginine N-methyltransferase 6; assay: Activity at PRMT6 (unknown origin) using AdoMet assessed as formation of MMA and aDMA at 0.25 to 200 uM after 60 to 120 mins by LC-MS/MS analysis
Target sequence in this assay (Q96LA8 whole entry, looked up): as the sequence (Q96LA8 whole entry) above

[11] = molecular target: T1, Histone-arginine methyltransferase CARM1 (Homo sapiens); assay: Activity at PRMT4 (unknown origin) using AdoMet assessed as formation of MMA and aDMA at 0.25 to 200 uM after 60 to 120 mins by LC-MS/MS analysis
[12] = molecular target: T3, Protein arginine N-methyltransferase 1; assay: Activity at PRMT1 (unknown origin) using AdoMet assessed as formation of MMA and aDMA at 0.25 to 200 uM after 60 to 120 mins by LC-MS/MS analysis
Target sequence in this assay (Q99873 whole entry, looked up): as the sequence (Q99873 whole entry) above

[13] = molecular target: T2, Protein arginine N-methyltransferase 6; assay: Activity at 100 to 400 nM of PRMT6 (unknown origin) assessed as increase of Vmax up to 200 uM relative to control
Target sequence in this assay (Q96LA8 whole entry, looked up): as the sequence (Q96LA8 whole entry) above

[14] = molecular target: T2, Protein arginine N-methyltransferase 6; assay: Activity at 50 to 800 nM of PRMT6 (unknown origin) assessed as increase of Vmax up to 200 uM relative to control
Target sequence in this assay (Q96LA8 whole entry, looked up): as the sequence (Q96LA8 whole entry) above

[15] = molecular target: T2, Protein arginine N-methyltransferase 6; assay: Activity at 50 to 800 nM of PRMT6 (unknown origin) assessed as increase of Km up to 200 uM relative to control
Target sequence in this assay (Q96LA8 whole entry, looked up): as the sequence (Q96LA8 whole entry) above

[16] = molecular target: T2, Protein arginine N-methyltransferase 6; assay: Inhibition of 50 to 100 nM of PRMT6 (unknown origin) up to 200 uM
[17] = molecular target: T2, Protein arginine N-methyltransferase 6; assay: Activity at 50 to 100 nM of PRMT6 (unknown origin) up to 200 uM
[18] = molecular target: T3, Protein arginine N-methyltransferase 1; assay: Activity at 800 nM of PRMT1 (unknown origin) at 100 to 200 uM
Target sequence in this assay (Q99873 whole entry, looked up): as the sequence (Q99873 whole entry) above

[19] = molecular target: T3, Protein arginine N-methyltransferase 1; assay: Activity at 50 to 100 nM of PRMT1 (unknown origin) up to 200 uM
Target sequence in this assay (Q99873 whole entry, looked up): as the sequence (Q99873 whole entry) above

[20] = molecular target: T3, Protein arginine N-methyltransferase 1; assay: Inhibition of 50 nM of PRMT1 (unknown origin) up to 200 uM
Target sequence in this assay (Q99873 whole entry, looked up): as the sequence (Q99873 whole entry) above

[21] = molecular target: T3, Protein arginine N-methyltransferase 1; assay: Inhibition of 50 to 800 nM of PRMT1 (unknown origin) up to 200 uM
[22] = molecular target: T3, Protein arginine N-methyltransferase 1; assay: Activity at 50 to 800 nM of PRMT1 (unknown origin) up to 200 uM
[23] = molecular target: T2, Protein arginine N-methyltransferase 6; assay: Activity at 400 nM of PRMT6 (unknown origin) using histone H3 tail peptide
[24] = molecular target: T3, Protein arginine N-methyltransferase 1; assay: Activity at PRMT1 (unknown origin) at 100 uM using => 5 uM of AdoMet
[25] = molecular target: T2, Protein arginine N-methyltransferase 6; assay: Activity at PRMT6 (unknown origin) at 100 uM using => 5 uM of AdoMet

Activity [1]	Ki [2] [µM]	Ki [3] [µM]	Activity [4]	Activity [5]	Activity [6]	Activity [7]	Selectivity ratio (Homo sapiens [8])	Selectivity ratio (Homo sapiens [9])	Activity [10]	Activity [11]	Activity [12]	Compound	also measured
Active	> 100	2.9	Active	Active								N=C(N)NCCC[C@H](NC(=O)CN)C(=O)N[C@@H](CCCCN)C(=O)N[C@@H](CCCCN)C(=O)N[C@@H](CCCN/C(N)=N/C1CC1)C(=O)N[C@@H](CCCNC(=N)N)C(=O)N[C@@H](CCC(N)=O)C(=O)N[C@@H](CCCNC(=N)N)C(=O)N[C@@H](CCCNC(=N)N)C(=O)N[C@@H](CCCNC(=N)N)C(=O)N1CCC[C@H]1C(=O)N1CCC[C@H]1C(=O)N[C@@H](CCC(N)=O)C(=O)O (H-GRKK[X5]RQRRRPPQ-OH)	
Active	77.3	7.62	Active	Active	inactive	inactive						N=C(N)NCCC[C@H](NC(=O)CN)C(=O)N[C@@H](CCCCN)C(=O)N[C@@H](CCCCN)C(=O)N[C@@H](CCCNC(N)=[N+]1CCCC1)C(=O)N[C@@H](CCCNC(=N)N)C(=O)N[C@@H](CCC(N)=O)C(=O)N[C@@H](CCCNC(=N)N)C(=O)N[C@@H](CCCNC(=N)N)C(=O)N[C@@H](CCCNC(=N)N)C(=O)N1CCC[C@H]1C(=O)N1CCC[C@H]1C(=O)N[C@@H](CCC(N)=O)C(=O)O (H-GRKK[X4]RQRRRPPQ-OH)	
Active	43.3	2.98	Active	Active	inactive	inactive						N=C(N)NCCC[C@H](NC(=O)CN)C(=O)N[C@@H](CCCCN)C(=O)N[C@@H](CCCCN)C(=O)N[C@@H](CCCN/C(N)=N/CC(F)(F)F)C(=O)N[C@@H](CCCNC(=N)N)C(=O)N[C@@H](CCC(N)=O)C(=O)N[C@@H](CCCNC(=N)N)C(=O)N[C@@H](CCCNC(=N)N)C(=O)N[C@@H](CCCNC(=N)N)C(=O)N1CCC[C@H]1C(=O)N1CCC[C@H]1C(=O)N[C@@H](CCC(N)=O)C(=O)O (H-GRKK[X2]RQRRRPPQ-OH)	
Active	63	2.68	Active	Active			10	10	Active	Active	Active	N=C(N)NCCC[C@H](NC(=O)CN)C(=O)N[C@@H](CCCCN)C(=O)N[C@@H](CCCCN)C(=O)N[C@@H](CCCN/C(N)=N/O)C(=O)N[C@@H](CCCNC(=N)N)C(=O)N[C@@H](CCC(N)=O)C(=O)N[C@@H](CCCNC(=N)N)C(=O)N[C@@H](CCCNC(=N)N)C(=O)N[C@@H](CCCNC(=N)N)C(=O)N1CCC[C@H]1C(=O)N1CCC[C@H]1C(=O)N[C@@H](CCC(N)=O)C(=O)O (H-GRKK[X1]RQRRRPPQ-OH)	
Active	31.3	4.29	Active	Active	inactive	inactive	10	10	Active	Active	Active	CC/N=C(\N)NCCC[C@H](NC(=O)[C@H](CCCCN)NC(=O)[C@H](CCCCN)NC(=O)[C@H](CCCNC(=N)N)NC(=O)CN)C(=O)N[C@@H](CCCNC(=N)N)C(=O)N[C@@H](CCC(N)=O)C(=O)N[C@@H](CCCNC(=N)N)C(=O)N[C@@H](CCCNC(=N)N)C(=O)N[C@@H](CCCNC(=N)N)C(=O)N1CCC[C@H]1C(=O)N1CCC[C@H]1C(=O)N[C@@H](CCC(N)=O)C(=O)O	
Active	19.9	2.68	Active	Active	inactive	inactive						N=C(N)NCCC[C@H](NC(=O)CN)C(=O)N[C@@H](CCCCN)C(=O)N[C@@H](CCCCN)C(=O)N[C@@H](CCCN/C(N)=N/Cc1ccccc1)C(=O)N[C@@H](CCCNC(=N)N)C(=O)N[C@@H](CCC(N)=O)C(=O)N[C@@H](CCCNC(=N)N)C(=O)N[C@@H](CCCNC(=N)N)C(=O)N[C@@H](CCCNC(=N)N)C(=O)N1CCC[C@H]1C(=O)N1CCC[C@H]1C(=O)N[C@@H](CCC(N)=O)C(=O)O (H-GRKK[X3]RQRRRPPQ-OH)	
Active	35.9	7.6	Active	Active	inactive	inactive	10	10	Active	Active	Active	H-GRKKARQRRRPPQ-OH	Activity [24]: Active; Activity [25]: Active

Compound	Activity [1]	Ki [2] [µM]	Ki [3] [µM]	Activity [4]	Activity [5]	Activity [6]	Activity [7]	Selectivity ratio (Homo sapiens [8])	Selectivity ratio (Homo sapiens [9])	Activity [10]	Activity [11]	Activity [12]	also measured
N=C(N)NCCC[C@H](NC(=O)CN)C(=O)N[C@@H](CCCCN)C(=O)N[C@@H](CCCCN)C(=O)N[C@@H](CCCNC(=N)N)C(=O)N[C@@H](CCCNC(=N)N)C(=O)N[C@@H](CCC(N)=O)C(=O)N[C@@H](CCCNC(=N)N)C(=O)N[C@@H](CCCNC(=N)N)C(=O)N[C@@H](CCCNC(=N)N)C(=O)N1CCC[C@H]1C(=O)N1CCC[C@H]1C(=O)N[C@@H](CCC(N)=O)C(=O)O	Active	35.1	4.79	Active	Active			10	10	Active	Active	Active	Activity [13]: Active; fold change (FC) [14]: 9; fold change (FC) [15]: 87; inhibition [16]: inactive; Activity [17]: Active; Activity [18]: Active; Activity [19]: Active; inhibition [20]: inactive; inhibition [21]: inactive; Activity [22]: Active; Activity [23]: Active
